pEC50: −log10 of the molar value. Where a name gives a salt, the structure may show the parent alone.
Assays:
NURR-1/RXRα = target: T1, NURR-1/RXRα (Homo sapiens, UniProt P19793); test: Transactivation test, NURR-1-Gal4/RXRα, luciferase reporter in Cos-7 cells; type: cell-based; conditions: for Emax: COS-7, induction level relative to reference XCT0135908 at 2×10^−5 M (=100%), read-out: hNurr1_RXRaFL Emax (%); for pEC50: Cos-7 cells, NURR-1-Gal4/RXRα, luciferase reporter, read-out: hNurr1_RXRaFL EC50
T1 construct: expressed in transfected cells; host or cells: Cos-7 cells
T1 sequence (P19793 whole entry, the tested form may be a part): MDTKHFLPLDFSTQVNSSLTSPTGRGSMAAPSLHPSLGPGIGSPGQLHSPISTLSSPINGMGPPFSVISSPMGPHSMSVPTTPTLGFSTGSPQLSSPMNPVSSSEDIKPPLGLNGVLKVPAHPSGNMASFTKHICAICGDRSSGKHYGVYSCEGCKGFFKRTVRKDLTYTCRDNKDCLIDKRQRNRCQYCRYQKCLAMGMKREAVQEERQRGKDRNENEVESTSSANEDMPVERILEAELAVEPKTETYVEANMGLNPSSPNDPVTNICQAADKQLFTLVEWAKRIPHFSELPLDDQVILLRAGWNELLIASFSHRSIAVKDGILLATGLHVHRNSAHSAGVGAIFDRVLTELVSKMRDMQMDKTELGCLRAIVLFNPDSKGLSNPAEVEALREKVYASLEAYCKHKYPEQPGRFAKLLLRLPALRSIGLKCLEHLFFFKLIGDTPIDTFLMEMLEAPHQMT
T1 sequence (P43354 whole entry partner, the tested form may be a part): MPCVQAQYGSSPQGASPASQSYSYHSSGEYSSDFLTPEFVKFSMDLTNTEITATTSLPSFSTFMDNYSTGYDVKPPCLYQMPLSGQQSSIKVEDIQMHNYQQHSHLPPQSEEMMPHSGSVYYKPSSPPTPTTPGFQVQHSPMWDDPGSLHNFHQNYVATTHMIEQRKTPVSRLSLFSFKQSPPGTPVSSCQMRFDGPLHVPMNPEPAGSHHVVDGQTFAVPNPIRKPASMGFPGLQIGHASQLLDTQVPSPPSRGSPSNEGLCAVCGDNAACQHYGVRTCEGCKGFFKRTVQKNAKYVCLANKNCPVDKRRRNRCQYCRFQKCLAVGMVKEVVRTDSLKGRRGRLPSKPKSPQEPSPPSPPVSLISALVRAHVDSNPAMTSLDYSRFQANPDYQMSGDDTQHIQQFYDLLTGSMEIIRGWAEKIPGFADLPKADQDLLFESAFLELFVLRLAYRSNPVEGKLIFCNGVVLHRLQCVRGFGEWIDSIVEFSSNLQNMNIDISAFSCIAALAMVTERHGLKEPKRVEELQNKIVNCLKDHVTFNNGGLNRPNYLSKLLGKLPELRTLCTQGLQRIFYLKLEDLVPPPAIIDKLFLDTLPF
T1 sequence (P04386 1-147 partner limits assumed): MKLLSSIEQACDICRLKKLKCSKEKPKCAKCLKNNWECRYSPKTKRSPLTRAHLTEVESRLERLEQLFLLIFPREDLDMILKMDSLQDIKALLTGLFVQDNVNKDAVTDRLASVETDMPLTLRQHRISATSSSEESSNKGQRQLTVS

NURR-1/RXRγ = target: T2, NURR-1/RXRγ (Homo sapiens, UniProt P48443); test: Transactivation test, NURR-1-Gal4/RXRγ, luciferase reporter in Cos-7 cells; type: cell-based; conditions: for Emax: COS-7, induction level relative to reference XCT0135908 at 2×10^−5 M (=100%), read-out: hNurr1_RXRgFL Emax (%); for pEC50: Cos-7 cells, NURR-1-Gal4/RXRγ, luciferase reporter, read-out: hNurr1_RXRgFL EC50
T2 construct: expressed in transfected cells; host or cells: Cos-7 cells
T2 sequence (P48443 whole entry, the tested form may be a part): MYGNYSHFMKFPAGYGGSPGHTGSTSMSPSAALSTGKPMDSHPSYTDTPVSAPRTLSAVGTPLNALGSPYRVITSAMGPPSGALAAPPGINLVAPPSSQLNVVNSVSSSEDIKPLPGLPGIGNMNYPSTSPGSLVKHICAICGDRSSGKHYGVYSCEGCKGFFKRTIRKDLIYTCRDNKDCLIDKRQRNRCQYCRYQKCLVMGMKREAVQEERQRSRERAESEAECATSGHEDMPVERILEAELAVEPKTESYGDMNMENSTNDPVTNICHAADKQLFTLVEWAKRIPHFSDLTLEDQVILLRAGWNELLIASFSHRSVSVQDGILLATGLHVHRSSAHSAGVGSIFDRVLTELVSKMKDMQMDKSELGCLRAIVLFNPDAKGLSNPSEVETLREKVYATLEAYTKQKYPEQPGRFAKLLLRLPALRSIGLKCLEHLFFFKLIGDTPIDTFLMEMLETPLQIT
T2 sequence (P43354 whole entry partner, the tested form may be a part): as the sequence (P43354 whole entry partner, the tested form may be a part) above
T2 sequence (P04386 1-147 partner limits assumed): as the sequence (P04386 1-147 partner limits assumed) above

melting point | Emax (NURR-1/RXRα) | pEC50 (NURR-1/RXRα) | Emax (NURR-1/RXRγ) | pEC50 (NURR-1/RXRγ) | Structure (SMILES)
94 to 96 °C | 81% | 5.77 | 98% | 5.55 | Cc1nc2cc(C(F)(F)F)ccc2n1-c1cccc(N2CC(C(=O)O)C2)c1 [Example 262, 1-[3-[2-methyl-5-(trifluoromethyl)benzimidazol-1-yl]phenyl]azetidine-3carboxylic acid]
81 to 88 °C | 110% | 7.89 | 119% | 6.32 | CC1(C)CNc2c(cc(Cl)cc2-c2cccc(N3CC(C(=O)O)C3)c2)O1 [Example 189, 1-[3-(7-chloro-2,2-dimethyl-3,4-dihydro-1,4-benzoxazin-5-yl)phenyl]azetidine-3-carboxylic acid]
63 to 67 °C | 110% | 8.52 | 105% | 8.22 | O=C(O)C1CN(c2cccc(-n3cc(CC4CCOC4)c4cc(C(F)(F)F)ccc43)c2)C1 (centres unmarked) [Example 128, 1-[3-[3-(tetrahydrofuran-3-ylmethyl)-5-(trifluromethyl)indol-1-yl]phenyl]adetidine-3-carboxylic acid]
83 °C | 104% | 7.74 | 103% | 7.36 | CCC1(CC)CN(c2cccc(N3CC(C(=O)O)C3)c2)c2ccc(C(F)(F)F)cc21 [Example 255, 1-[3-[3,3-diethyl-5-(trifluoromethyl)indolin-1-yl]phenyl]azetidine-3-carboxylic acid]
76 to 79 °C | 99% | 8.00 |  |  | O=C(O)C1CN(c2cccc(-c3cc(C(F)(F)F)cc4c3NCCO4)c2)C1 [Example 65, 1-[3-[7-(trifluoromethyl)-3,4-dihydro-2H-1,4-benzoxazin-5-yl]phenyl]azetidine-3-carboxylic acid]
141 to 146 °C | 114% | 7.59 |  |  | CC1(C)N=C(c2cccc(N3CC(C(=O)[O-])C3)c2)c2ccc(C(F)(F)F)cc2O1.[Na+] [Example 271, sodium 1-[3-[2,2-dimethyl-7-(trifluoromethyl)-1,3-benzoxazin-4-yl]phenyl]azetidine-3-carboxylate]
190 to 200 °C | 115% | 8.40 |  |  | CC(C)(C)c1cc2c(c(-c3cccc(N4CC(C(=O)[O-])C4)c3)c1)NCC1(CCC1)O2.[Na+] [Example 205, sodium 1-[3-(7-tert-butylspiro[3,4-dihydro-1,4-benzoxazine-2,1′-cyclobutane]-5-yl)phenyl]azetidine-3-carboxylate]
245 to 246 °C | 94% | 9.04 |  |  | CN1CC(C)(C)Oc2cc(C(C)(C)C)cc(-c3cccc(N4CC(C(=O)[O-])C4)c3)c21.[Na+] [Example 211, sodium 1-[3-(7-tert-butyl-2,2,4-trimethyl-3H-1,4-benzoxazin-5-yl)phenyl]azetidine-3-carbxoylate]
177 to 191 °C | 107% | ~9.00 |  |  | O=C([O-])C1CN(c2cccc(C3=CC4(CCC4)Oc4cc(C(F)(F)F)ccc43)c2)C1.[Na+] [Example 268, sodium 1-[3-[7-(trifluoromethyl)spiro[chromene-2,1′-cyclobutane]-4-yl]phenyl]azetidine-3-carboxylate]
230 to 234 °C | 55% | 5.54 |  |  | CN(C)C(=O)c1cn(-c2cccc(N3CC(C(=O)O)C3)c2)c2ccc(C(F)(F)F)cc12 [Example 131]
120 to 121 °C |  |  |  |  | CC(C)Cc1ccc2c(c1)OC(C)(C)CN2c1cccc(N2CC(C(=O)O)C2)c1 (as salt: ammonium) [Example 231, tert-butylammonium 1-[3-(7-isobutyl-2,2-dimethyl-3H-1,4-benzoxazin-4yl)phenyl]azetidine-3-carboxylate]
147 to 152 °C |  |  |  |  | CCC1(CC)C=C(c2cccc(N3CC(C(=O)O)C3)c2)c2ccc(C(F)(F)F)cc2O1 (as salt: ammonium) [Example 265]
169 to 176 °C | 88% | 7.12 |  |  | CC1(C)CCNc2c(cc(C(C)(C)C)cc2-c2cccc(N3CC(C(=O)[O-])C3)c2)O1.[Na+] [Example 210, sodium 1-[3-(8-tert-butyl-2,2-dimethyl-4,5-dihydro-3H-1,5-benzoxazepin-6-yl)phenyl]azetidine-3-carboxylate]
161 to 168 °C | 116% | 6.87 |  |  | CCS(=O)(=O)c1cn(-c2cccc(N3CC(C(=O)O)C3)c2)c2ccc(C(F)(F)F)cc12 [Example 138, 1-[3-[3-(ethylsulfonyl)-5-(trifluoromethyl)indol-1-yl]phenyl]azetidine-3-carboxylic acid]
131 to 133 °C |  |  |  |  | O=C(O)C1CN(c2cccc(N3CC4(CCCC4)c4cc(Cl)ccc43)c2)C1 (as salt: ammonium) [Example 257, tert-butylammonium 1-[3-(5′-chlorospiro[cyclopentane-1,3′-indolin]-1′-yl)phenyl]azetidine-3-carboxyate]
196 to 203 °C | 109% | 7.96 |  |  | CC(C)c1cc2c(c(-c3cccc(N4CC(C(=O)[O-])C4)c3)c1)NCC(C)(C)C2.[Na+] [Example 208, sodium 1-[3-(6-isopropyl-3,3-dimethyl-2,4-dihydro-1H-quinoline-8-yl)phenyl]azetidine-3-carboxylate]
145 to 154 °C | 95% | 6.67 |  |  | Cc1cc2c(c(-c3cccc(N4CC(C(=O)[O-])C4)c3)c1)NCCC(C)(C)O2.[Na+] [Example 209, sodium 1-[3-(2,2,8-trimethyl4,5-dihydro-3H-1,5-benzoxazepin-6-yl)phenyl]azetidine-3-carboxylate]
100 to 124 °C |  |  |  |  | CCc1cc2c(c(-c3cccc(N4CC(C(=O)O)C4)c3)c1)NCC(C)(C)O2 (as salt: ammonium) [Example 207, tert-butylammonium 1-[3-(7-ethyl-2,2-dimethyl-3,4-dihydro-1,4-benzoxazin-5-yl)phenyl]azetidine-3-carboxylate]
212 to 233 °C | 115% | 7.89 |  |  | CC1(C)C=C(c2cccc(N3CC(C(=O)[O-])C3)c2)c2ccc(C(C)(C)C)cc2O1.[Na+] [Example 267, sodium 1-[3-(7-tert-butyl-2,2-dimethylchromen-4-yl)phenyl]azetidine-3-carboxylate]
170 to 178 °C |  |  |  |  | CN1CC2(CCC2)Oc2cc(C(C)(C)C)cc(-c3cccc(N4CC(C(=O)O)C4)c3)c21 (as salt: ammonium) [Example 213, tert-butylammonium 1-[3-(7-tert-butyl-4-methyl-spiro[3H-1,4-benzoxazine-2,1′-cyclobutane]-5-yl)phenyl]azetidine-3-carboxylate]
148 to 154 °C |  |  |  |  | CC1(C)CN(CC(F)(F)F)c2c(cc(C(F)(F)F)cc2-c2cccc(N3CC(C(=O)O)C3)c2)O1 (as salt: ammonium) [Example 215, tert-butylammonium 1-[3-[2,2-dimethyl-4 (2,2,2-trifluoromethyl)-7-(trifluoromethyl)-3H-1,4-benzoxazin-5-yl]phenyl]azetidine-3-carboxylate]

— patent US20170066717A1, “NEW PHENYLAZETIDINECARBOXYLATE OR -CARBOXAMIDE COMPOUNDS” (INVENTIVA, priority 2014, published 2017)
